Assay results taken from US9833497B2, “Human originated EGF domain proteins and use of the same” (CHENGDU SOURCEBIO LIMITED-LIABILITY COMPANY, priority 2013, dated 2017).

Tests used:
Assay type in all cases: cell-based
[1] = test system: E. coli DH5α; assay: Antibacterial activity: MIC and growth curve against E. coli DH5α in 96-well plate; conditions: minimal inhibitory concentration against E. coli DH5α; 96-well plate, 5×10^5 CFU/mL, 37° C., judged after 8 h
How it was run: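 Log-phase DH5α (OD600 about 0.5, 37° C, 185 rpm in LB) was pelleted, resuspended in fresh LB and seeded at 5×10^5 CFU/mL with recombinant protein at 50, 25 and 12.5 μg/mL (two-fold series), in triplicate. Plates were shaken at 175 rpm, 37° C, and OD600 was read every 30 min. MIC was the lowest concentration with no growth.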

[2] = test system: E. coli BL21; assay: MIC against Gram-negative bacteria: E. coli BL21
How it was run: (§1)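 Bacteria grown in LB at 37° C to McFarland 0.5, resuspended and seeded at 5×10^5 CFU/mL in 96-well plates. Purified human EGF-domain proteins two-fold serially diluted, triplicate wells; cultured at 37° C, shaking 175 rpm. MIC = lowest protein concentration with no growth.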

[3] = test system: Pseudomonas aeruginosa; assay: MIC against Gram-negative bacteria: Pseudomonas aeruginosa
How it was run: as §1

[4] = test system: Klebsiella pneumonia; assay: MIC against Gram-negative bacteria: Klebsiella pneumonia
How it was run: as §1

[5] = test system: Enterobacter cloacae; assay: MIC against Gram-negative bacteria: Enterobacter cloacae
How it was run: as §1

[6] = test system: Aeromonas hydrophila; assay: MIC against Gram-negative bacteria: Aeromonas hydrophila
How it was run: as §1

[7] = test system: Citrobacter diversus; assay: MIC against Gram-negative bacteria: Citrobacter diversus
How it was run: as §1

[8] = test system: Moraxella catarrhalis; assay: MIC against Gram-negative bacteria: Moraxella catarrhalis
How it was run: as §1

[9] = test system: Proteus mirabilis; assay: MIC against Gram-negative bacteria: Proteus mirabilis
How it was run: as §1

[10] = test system: Proteus vulgaris; assay: MIC against Gram-negative bacteria: Proteus vulgaris
How it was run: as §1

[11] = test system: Serratia marcescens; assay: MIC against Gram-negative bacteria: Serratia marcescens
How it was run: as §1

[12] = E. coli BL21, 5×10^5 CFU/mL, 10 h cultivation at 37° C.
[13] = Pseudomonas aeruginosa, 5×10^5 CFU/mL, 10 h cultivation at 37° C.
[14] = Klebsiella pneumonia, 5×10^5 CFU/mL, 10 h cultivation at 37° C.
[15] = Enterobacter cloacae, 5×10^5 CFU/mL, 10 h cultivation at 37° C.
[16] = Aeromonas hydrophila, 5×10^5 CFU/mL, 10 h cultivation at 37° C.
[17] = Citrobacter diversus, 5×10^5 CFU/mL, 10 h cultivation at 37° C.
[18] = Moraxella catarrhalis, 5×10^5 CFU/mL, 10 h cultivation at 37° C.
[19] = Proteus mirabilis, 5×10^5 CFU/mL, 10 h cultivation at 37° C.
[20] = Proteus vulgaris, 5×10^5 CFU/mL, 10 h cultivation at 37° C.
[21] = Serratia marcescens, 5×10^5 CFU/mL, 10 h cultivation at 37° C.
[22] = 96-well plate, 5×10^5 CFU/mL, 37° C., 10 h
[23] = 10 h cultivation at 37° C., 5×10^5 CFU/mL, two-fold serial dilution
[24] = E. coli BL21, 96-well plate, 5×10^5 CFU/mL, 37° C., 10 h
[25] = Pseudomonas aeruginosa, 96-well plate, 5×10^5 CFU/mL, 37° C., 10 h
[26] = Klebsiella pneumonia, 96-well plate, 5×10^5 CFU/mL, 37° C., 10 h
[27] = Enterobacter cloacae, 96-well plate, 5×10^5 CFU/mL, 37° C., 10 h
[28] = Aeromonas hydrophila, 96-well plate, 5×10^5 CFU/mL, 37° C., 10 h
[29] = Citrobacter diversus, 96-well plate, 5×10^5 CFU/mL, 37° C., 10 h
[30] = Moraxella catarrhalis, 96-well plate, 5×10^5 CFU/mL, 37° C., 10 h
[31] = Proteus mirabilis, 96-well plate, 5×10^5 CFU/mL, 37° C., 10 h
[32] = Proteus vulgaris, 96-well plate, 5×10^5 CFU/mL, 37° C., 10 h
[33] = Serratia marcescens, 96-well plate, 5×10^5 CFU/mL, 37° C., 10 h

| Substance | MIC [1] [µg/mL] | MIC against E. coli BL21 [2, 12] [µg/mL] | MIC against P. aeruginosa [3, 13] [µg/mL] | MIC against K. pneumonia [4, 14] [µg/mL] | MIC against E. cloacae [5, 15] [µg/mL] | MIC against A. hydrophila [6, 16] [µg/mL] | MIC against C. diversus [7, 17] [µg/mL] | MIC against M. catarrhalis [8, 18] [µg/mL] | MIC against P. mirabilis [9, 19] [µg/mL] | MIC against P. vulgaris [10, 20] [µg/mL] | MIC against S. marcescens [11, 21] [µg/mL] | also measured |
| --- | --- | --- | --- | --- | --- | --- | --- | --- | --- | --- | --- | --- |
| PRT1415 (PRATCLDQCSGHGTFLPDTGLCSCDPSWTGHDCS; listed as Homo sapiens) | 25 | 12.5 | 25 | 12.5 | 25 | 25 | 50 | 25 | 12.5 | 25 | 50 | – |
| PRT668 (DINECRHPGTCPDGRCVNSPGSYTCLACEEGYRGQSGSCV; listed as Homo sapiens) | 12.5 | – | – | – | – | – | – | – | – | – | – | MIC E. coli BL21 [2, 22]: 50 µg/mL; MIC P. aeruginosa [3, 22]: 12.5 µg/mL; MIC K. pneumonia [4, 22]: 50 µg/mL; MIC E. cloacae [5, 22]: 12.5 µg/mL; MIC A. hydrophila [6, 22]: 50 µg/mL; MIC C. diversus [7, 22]: 100 µg/mL; MIC M. catarrhalis [8, 22]: 25 µg/mL; MIC P. mirabilis [9, 22]: 25 µg/mL; MIC P. vulgaris [10, 22]: 50 µg/mL; MIC S. marcescens [11, 22]: 100 µg/mL |
| PRT1386 (GSRACPRDCRGRGRCENGVCVCNAGYSGEDC; listed as Homo sapiens) | 25 | 12.5 | 25 | 12.5 | 25 | 12.5 | 12.5 | 12.5 | 12.5 | 25 | 12.5 | – |
| PRT1093 (RKDWCESQPCQSRGRCINLWLSYQCDCHRPYEGPNCL; listed as Homo sapiens) | 12.5 | – | – | – | – | – | – | – | – | – | – | MIC E. coli BL21 [2, 23]: 50 µg/mL; MIC P. aeruginosa [3, 23]: 12.5 µg/mL; MIC K. pneumonia [4, 23]: 50 µg/mL; MIC E. cloacae [5, 23]: 12.5 µg/mL; MIC A. hydrophila [6, 23]: 50 µg/mL; MIC C. diversus [7, 23]: 25 µg/mL; MIC M. catarrhalis [8, 23]: 12.5 µg/mL; MIC P. mirabilis [9, 23]: 25 µg/mL; MIC P. vulgaris [10, 23]: 50 µg/mL; MIC S. marcescens [11, 23]: 12.5 µg/mL |
| PRT1240 (WGPDCRESCPCHPHGQCEPATGACQCQADRWGARCE; listed as Homo sapiens) | 12.5 | – | – | – | – | – | – | – | – | – | – | MIC against E. coli BL21 [2, 24]: 50 µg/mL; MIC against P. aeruginosa [3, 25]: 12.5 µg/mL; MIC against K. pneumonia [4, 26]: 12.5 µg/mL; MIC against E. cloacae [5, 27]: 25 µg/mL; MIC against A. hydrophila [6, 28]: 12.5 µg/mL; MIC against C. diversus [7, 29]: 25 µg/mL; MIC against M. catarrhalis [8, 30]: 50 µg/mL; MIC against P. mirabilis [9, 31]: 25 µg/mL; MIC against P. vulgaris [10, 32]: 12.5 µg/mL; MIC against S. marcescens [11, 33]: 25 µg/mL |
| PRT18 (CQCNPHGSYGGTCDPATGQCSCRPGVGGLRCDRCEPGFWNFRGIVTDGRSGCTP; listed as Homo sapiens) | 12.5 | – | – | – | – | – | – | – | – | – | – | MIC (μg/mL) E. coli BL21 [2, 24]: 50 µg/mL; MIC (μg/mL) P. aeruginosa [3, 25]: 25 µg/mL; MIC (μg/mL) K. pneumonia [4, 26]: 100 µg/mL; MIC (μg/mL) E. cloacae [5, 27]: 50 µg/mL; MIC (μg/mL) A. hydrophila [6, 28]: 25 µg/mL; MIC (μg/mL) C. diversus [7, 29]: 12.5 µg/mL; MIC (μg/mL) M. catarrhalis [8, 30]: 12.5 µg/mL; MIC (μg/mL) P. mirabilis [9, 31]: 25 µg/mL; MIC (μg/mL) P. vulgaris [10, 32]: 12.5 µg/mL; MIC (μg/mL) S. marcescens [11, 33]: 12.5 µg/mL |
| PRT1344 (DIDECSPLPCLNNGVCKDLVGEFICECPSGYTGQRCE; listed as Homo sapiens) | 12.5 | 50 | 25 | 12.5 | 25 | 50 | 12.5 | 50 | 12.5 | 50 | 25 | – |
| PRT1153 (TVSTCDPEHDPPHHCSRGATCISLPHGYTCFCPLGTTGIYCE; listed as Homo sapiens) | 12.5 | – | – | – | – | – | – | – | – | – | – | MIC E. coli BL21 [2, 23]: 50 µg/mL; MIC P. aeruginosa [3, 23]: 12.5 µg/mL; MIC K. pneumonia [4, 23]: 50 µg/mL; MIC E. cloacae [5, 23]: 12.5 µg/mL; MIC A. hydrophila [6, 23]: 50 µg/mL; MIC C. diversus [7, 23]: 25 µg/mL; MIC M. catarrhalis [8, 23]: 12.5 µg/mL; MIC P. mirabilis [9, 23]: 25 µg/mL; MIC P. vulgaris [10, 23]: 50 µg/mL; MIC S. marcescens [11, 23]: 12.5 µg/mL |
| PRT1355 (AELSCPNDCHGQGRCVNGQCVCHEGFMGKDCK; listed as Homo sapiens) | 50 | 25 | 12.5 | 25 | 50 | 12.5 | 50 | 12.5 | 25 | 50 | 25 | – |
| PRT1001 (EMTACHSGPCLNGGSCNPSPGGYYCTCPPSHTGPQCQ; listed as Homo sapiens) | 12.5 | – | – | – | – | – | – | – | – | – | – | MIC ([2]; E. coli BL21, 10 h cultivation at 37° C.): 50 µg/mL; MIC ([3]; P. aeruginosa, 10 h cultivation at 37° C.): 12.5 µg/mL; MIC ([4]; K. pneumonia, 10 h cultivation at 37° C.): 50 µg/mL; MIC ([5]; E. cloacae, 10 h cultivation at 37° C.): 25 µg/mL; MIC ([6]; A. hydrophila, 10 h cultivation at 37° C.): 12.5 µg/mL; MIC ([7]; C. diversus, 10 h cultivation at 37° C.): 50 µg/mL; MIC ([8]; M. catarrhalis, 10 h cultivation at 37° C.): 25 µg/mL; MIC ([9]; P. mirabilis, 10 h cultivation at 37° C.): 12.5 µg/mL; MIC ([10]; P. vulgaris, 10 h cultivation at 37° C.): 25 µg/mL; MIC ([11]; S. marcescens, 10 h cultivation at 37° C.): 50 µg/mL |
| PRT1398 (EVDCLDPTCSSHGVCVNGECLCSPGWGGLNCEL; listed as Homo sapiens) | 25 | 25 | 12.5 | 25 | 50 | 25 | 12.5 | 25 | 12.5 | 25 | 12.5 | – |
